Measurements: patent US4016280A, “4,4-Diarylpiperidine compositions and use” (Byk Gulden Lomberg Chemische Fabrik GmbH, priority 1969, dated 1977)
“Also recorded” adds a separate entry of the source. Like-named read-outs stand apart in the source and are kept apart here.

What was measured:
[1] = Increase in blood pressure; format: in vivo; settings: rats and dogs
Experimental: (§1) As stated above, the compounds of formula I have advantageous central nervous system stimulating properties. Side-effects, as they are encountered on administration of amphetamine-type stimulants, are produced to a much lesser extent by the 4,4-diphenylpiperidine compounds, if at all. […] The tests were carried out according to known and accepted pharmacological standard test methods.
pressure (rats and increase

albino mouse [2] = test: Locomotory activity (restlessness in movements); format: in vivo; settings: albino mouse 5 mg/kg. perorally
Experimental: as §1

[3] = Potentiating effect on noradrenaline; settings: in vivo
Experimental: as §1

Tachyphylaxis = settings: in vivo
Experimental: as §1
g Tachyphylaxis None Pronounced

Exophthalmus = settings: in vivo
Experimental: as §1
f Exophthalmus Absent Present

albino mouse [4] = test: Saliva secretion; format: in vivo
Experimental: as §1
No secretion Pronounced

[5] = Acute toxicity in the albino mouse; settings: in vivo
Experimental: as §1
a Acute toxicity 150 mg./kg. 100 mg./kg.

[6] = Marshall, Brit. J. Pharmacol. 10, 270 (1955), technique of Schild, cited from earlier work
albino mouse [7] = test: Antagonism in the albino mouse of tremorine tremor; format: in vivo; settings: tremorine 15 mg/kg i.p., drug per os, Examples 28, 29: 50 to 300 mg/kg; for ED50: Mus musculus, po
Experimental: (§2) Antagonism in the albino mouse
(§3) of tion dation p.o.) i.p.)
(§4) *drugs administered per os
(§5) **administered in doses from 50 to 300 mg/kg

albino mouse [8] = test: Antagonism in the albino mouse of perphenazine catalepsy; format: in vivo; settings: perphenazine 10 mg/kg p.o., drug per os, Examples 28, 29: 50 to 300 mg/kg; for ED50: Mus musculus, po
Experimental: as §2
(§6) Com- Preventive Curative catalepsy
as §3, §4, §5

[9] = Randall and Lehmann, J. Pharmacol. Exp. Therap. 93, 314 (1948), cited from earlier work
albino mouse [10] = test: General behaviour of the albino mouse with different doses; format: in vivo; settings: albino mouse; for Locomotory activity / Restlessness Stereotype / Salivation / Vigilance: different doses per os, Examples 28, 29: 50 to 300 mg/kg
Experimental: Acute toxi- General behaviour of the albino
city in the mouse with different doses*
as §4, §5

albino mouse [11] = test: Antagonism in the albino mouse of reserpine (preventive and curative ptosis/sedation); format: in vivo; settings: reserpine 2mg/kg sc., drug per os; for ED50: Mus musculus, po
Experimental: as §2, §6, §3, §4, §5

[12] = listed as 1 methyl-4,4-diphenylpiperidine
[13] = Examples 28, 29: 50 to 300 mg/kg, read-out: Reserpine antagonism, Curative Sedation ED50
[14] = Examples 28, 29: 50 to 300 mg/kg, read-out: Reserpine antagonism, Curative ptosis ED50
[15] = read-out: Reserpine antagonism, Preventive Sedation ED50
[16] = read-out: Reserpine antagonism, Preventive ptosis ED50
[17] = mouse, iv, Table 2, i.v., read-out: Acute toxicity in the albino mouse LD50 i.v.
[18] = mouse, po, Table 2, p.o., read-out: Acute toxicity in the albino mouse LD50 p.o.
[19] = Examples 28, 29: 50 to 300 mg/kg

Row | Structure (SMILES) | ED50 (albino mouse [7]) | ED50 (albino mouse [8]) | Locomotory activity (in words) (albino mouse [10]) | Restlessness, stereotypia or salivation (in words) (albino mouse [10]) | Vigilance of the animal (in words) (albino mouse [10]) | Locomotory activity (albino mouse [10]) | Restlessness Stereotype (albino mouse [10]) | Salivation (albino mouse [10]) | Vigilance (albino mouse [10]) | ED50 (albino mouse [11]; [13]) | ED50 (albino mouse [11]; [14]) | ED50 (albino mouse [11]; [15]) | ED50 (albino mouse [11]; [16]) | LD50 [5, 17] | Reserpine antagonism, Curative ptosis ED50 (albino mouse [11]; [19]) | also measured
1 | CC(N)Cc1ccccc1 (stereo not drawn) [Amphetamine, reference compound] | – | – | – | – | – | – | – | – | – | – | – | – | – | – | – | Increase in blood pressure [1]: Pronounced; Locomotory activity (restlessness in movements), increase by (albino mouse [2]): 100%; Potentiating effect on noradrenaline [3]: Present; Tachyphylaxis (Tachyphylaxis): Pronounced; Exophthalmus (Exophthalmus): Present; Saliva secretion (albino mouse [4]): Pronounced; LD50 ([5]; po, Table 1, albino mouse perorally, read-out: Acute toxicity): 100 mg/kg
2 | CN1CCC(c2ccccc2)(c2ccccc2)CC1 [Example 1, 1-Methyl-4,4-diphenylpiperidine] | 1 mg/kg | 3 mg/kg | only slightly increased | without causing restlessness, sterotypia or salivation | strong increase | (+) | .phi. (no effect) | .phi. (no effect) | ++ | 10 mg/kg | > 50 mg/kg | 3 mg/kg | 4 mg/kg | 45 mg/kg | – | Antihistaminic activity ([6]; listed as 1-Methyl-4,4-diphenylpiperidine): devoid of any therapeutically utilizable antihistaminic activity; Antihistaminic activity [6, 12]: devoid of any therapeutically-utilizable antihistaminic activity; Analgesic activity ([9]; listed as 1-methyl-4,4-diphenylpiperidine): devoid of analgesic activity; Analgesic activity [9, 12]: devoid of analgesic action; LD50 [5, 18]: 140 mg/kg
3 | CCN1CCC(c2ccccc2)(c2ccccc2)CC1 [Example 3, 1-Ethyl-4,4-diphenylpiperidine] | 1 mg/kg | 2 mg/kg | – | – | – | (+) | .phi. (no effect) | .phi. (no effect) | ++ | 50 mg/kg | > 50 mg/kg | 5 mg/kg | 5 mg/kg | 45 mg/kg | – | LD50 [5, 18]: 150 mg/kg
4 | c1ccc(CCN2CCC(c3ccccc3)(c3ccccc3)CC2)cc1 [Example 5, 1-Phenethyl-4,4-diphenylpiperidine] | – | – | – | – | – | - (decrease) | .phi. (no effect) | .phi. (no effect) | + (increase) | – | – | 3 mg/kg | 3 mg/kg | 19 mg/kg | (+) | Tremorine tremor antagonism ED50 (albino mouse [7]): .phi. (no effect); Remark under Locomotory activity (Ataxy) (albino mouse [10]; per os): Ataxy; Reserpine antagonism, Curative Sedation ED50 (albino mouse [11]; [19]): (+)
5 | COCCCN1CCC(c2ccccc2)(c2ccccc2)CC1 [Example 7, 1-(3-Methoxypropyl)-4,4-diphenylpiperidine] | 3 mg/kg | – | only slightly increased | without causing restlessness, sterotypia or salivation | strong increase | (+) | .phi. (no effect) | .phi. (no effect) | ++ | – | – | – | – | 30 mg/kg | – | –
6 | OCCN1CCC(c2ccccc2)(c2ccccc2)CC1 [Example 9, 1-(2-Hydroxyethyl)-4,4-diphenylpiperidine] | 10 mg/kg | 15 mg/kg | only slightly increased | without causing restlessness, sterotypia or salivation | strong increase | (+) | .phi. (no effect) | .phi. (no effect) | ++ | 15 mg/kg | – | 8 mg/kg | 10 mg/kg | 33 mg/kg | (+) | –
7 | c1ccc(CN2CCC(c3ccccc3)(c3ccccc3)CC2)cc1 [Example 10, 1-Benzyl-4,4-diphenylpiperidine] | – | – | only slightly increased | without causing restlessness, sterotypia or salivation | strong increase | – | – | – | ++ | – | – | – | – | 20 mg/kg | – | –
8 | CC(=O)CN1CCC(c2ccccc2)(c2ccccc2)CC1 [Example 17, 1-Acetonyl-4,4-diphenylpiperidine] | 17 mg/kg | > 25 mg/kg | only slightly increased | without causing restlessness, sterotypia or salivation | strong increase | (+) | .phi. (no effect) | .phi. (no effect) | ++ | ~25 mg/kg | > 25 mg/kg | 15 mg/kg | 12 mg/kg | 34 mg/kg | – | –
9 | c1ccc(C2(c3ccccc3)CCNCC2)cc1 [Example 19, 4,4-Diphenylpiperidine] | 2 mg/kg | 20 mg/kg | only slightly increased | without causing restlessness, sterotypia or salivation | strong increase | (+) | .phi. (no effect) | .phi. (no effect) | ++ | 10 mg/kg | > 50 mg/kg | 5 mg/kg | 10 mg/kg | 25 mg/kg | – | –
10 | CCC(C)N1CCC(c2ccccc2)(c2ccccc2)CC1 (stereo not drawn) [Example 26, 1-(secondary Butyl)-4,4-diphenylpiperidine] | 5 mg/kg | 7 mg/kg | only slightly increased | without causing restlessness, sterotypia or salivation | strong increase | (+) | .phi. (no effect) | .phi. (no effect) | ++ | 10 mg/kg | – | 10 mg/kg | 25 mg/kg | 19 mg/kg | (+) | Antihistaminic activity [6]: devoid of any therapeutically-utilizable antihistaminic activity; also recorded: devoid of any therapeutically utilizable antihistaminic activity
11 | OCCCN1CCC(c2ccccc2)(c2ccccc2)CC1 [Example 30, 1-(3-hydroxypropyl)-4,4-diphenylpiperidine] | 5 mg/kg | 5 mg/kg | only slightly increased | without causing restlessness, sterotypia or salivation | strong increase | + (increase) | .phi. (no effect) | .phi. (no effect) | ++ | – | – | 25 mg/kg | 25 mg/kg | 32 mg/kg | (+) | Reserpine antagonism, Curative Sedation ED50 (albino mouse [11]; [19]): .phi. (no effect)
12 | CC(=O)CCN1CCC(c2ccccc2)(c2ccccc2)CC1 [Example 32, 1-(2-Acetoethyl)-4,4-diphenylpiperidine] | – | – | only slightly increased | without causing restlessness, sterotypia or salivation | strong increase | (+) | .phi. (no effect) | .phi. (no effect) | ++ | – | – | – | – | – | > 60 mg/kg | Tremorine tremor antagonism ED50 (albino mouse [7]): 15 mg/kg; Perphenazine catalepsy antagonism ED50 (albino mouse [8]): 45 mg/kg; Reserpine antagonism, Preventive Sedation ED50 (albino mouse [11]): 15 mg/kg; Reserpine antagonism, Preventive ptosis ED50 (albino mouse [11]): 10 mg/kg; Reserpine antagonism, Curative Sedation ED50 (albino mouse [11]; [19]): ~ 50 mg/kg
